Several values for one entry are separate records, joined by “and”; a condition that tells them apart may be missing. Identical values can stand only once. Inconclusive results and toxic doses are left out. Rule as the data show it: active = T/C of 150% or more; inactive = T/C below 125%.
Tested on: L1210 leukemia ip in BDF1 mice, survival T/C
Test: NCI In Vivo Anticancer Drug Screen. Data for tumor model L1210 Leukemia (intraperitoneal) in B6D2F1 (BDF1) mice
Details: endpoint: mean survival time, higher = longer survival
In short: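 In this screen, tumor-bearing mice given compound are compared to those given vehicle, and their survival values are reported as a treated-to-control quotient.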

[1] = dose: 50.0 mg/kg/injection, schedule: Q04DX003 (ip), vehicle: saline with Tween-80
[2] = dose: 200.0 mg/kg/injection, schedule: Q04DX003 (ip), vehicle: saline with Tween-80
[3] = dose: 100.0 mg/kg/injection, schedule: Q04DX002 (ip), vehicle: Klucel (hydroxypropylcellulose) (HPC)
[4] = dose: 200.0 mg/kg/injection, schedule: Q04DX002 (ip), vehicle: Klucel (hydroxypropylcellulose) (HPC)
[5] = dose: 400.0 mg/kg/injection, schedule: Q04DX002 (ip), vehicle: Klucel (hydroxypropylcellulose) (HPC)
[6] = dose: 100.0 mg/kg/injection, schedule: Q04DX003 (ip), vehicle: saline with Tween-80
[7] = dose: 200.0 mg/kg/injection, schedule: Q01DX009 (ip), vehicle: saline with Tween-80
[8] = dose: 400.0 mg/kg/injection, schedule: Q04DX003 (ip), vehicle: saline with Tween-80
[9] = dose: 100.0 mg/kg/injection, schedule: Q01DX009 (ip), vehicle: saline with Tween-80
[10] = dose: 400.0 mg/kg/injection, schedule: Q01DX009 (ip), vehicle: saline with Tween-80
[11] = dose: 100.0 mg/kg/injection, schedule: Q04DX003 (ip), vehicle: Klucel (hydroxypropylcellulose) (HPC)
[12] = dose: 200.0 mg/kg/injection, schedule: Q04DX003 (ip), vehicle: Klucel (hydroxypropylcellulose) (HPC)
[13] = dose: 400.0 mg/kg/injection, schedule: Q04DX003 (ip), vehicle: Klucel (hydroxypropylcellulose) (HPC)
[14] = dose: 6.25 mg/kg/injection, schedule: Q01DX009 (ip), vehicle: saline with Tween-80
[15] = dose: 12.5 mg/kg/injection, schedule: Q01DX009 (ip), vehicle: saline with Tween-80
[16] = dose: 25.0 mg/kg/injection, schedule: Q01DX009 (ip), vehicle: saline with Tween-80
[17] = dose: 100.0 mg/kg/injection, schedule: Q04DX002 (ip), vehicle: saline
[18] = dose: 200.0 mg/kg/injection, schedule: Q04DX002 (ip), vehicle: saline
[19] = dose: 400.0 mg/kg/injection, schedule: Q04DX002 (ip), vehicle: saline

Measured: T/C

CCCCOC1NC(=O)NC(=O)C1=[N+]=[N-] (stereo unspecified)
inactive: [1] 98 % of control | [2] 102 % of control

COc1ccccc1NC(=S)Nc1ccccc1
inactive: [3] 97 % of control | [4] 101 % of control | [5] 108 % of control

CC1=CC(=O)N(NC(N)=O)C1=O
inactive: [6] 94 % of control | [7] 90 % of control | [2] 102 % of control | [8] 105 % of control

CC(C)NC(=O)Oc1cccc(NC(=O)C(C)C)c1
inactive: dose: 25.0 mg/kg/injection, schedule: Q04DX003 (ip), vehicle: saline with Tween-80 101 % of control | [1] 92 % of control | [6] 92 % of control and 95 % of control | [8] 89 % of control

CSc1nc(C(Cl)Cl)cnc1Cl
inactive: [3] 102 % of control | [4] 91 % of control | [5] 105 % of control

Cc1ccccc1Sc1cc2ccccc2c2ccccc12
inactive: dose: 100.0 mg/kg/injection, schedule: Q01DX001 (ip), vehicle: saline 94 % of control | [9] 96 % of control | dose: 200.0 mg/kg/injection, schedule: Q01DX001 (ip), vehicle: saline 97 % of control | [7] 98 % of control | dose: 400.0 mg/kg/injection, schedule: Q01DX001 (ip), vehicle: saline 94 % of control | [10] 101 % of control

Cc1c(NC=O)c(=O)n(-c2ccccc2)n1C
inactive: dose: 100.0 mg/kg/injection, schedule: Q01DX009 (ip), vehicle: Klucel (hydroxypropylcellulose) (HPC) 92 % of control | [11] 107 % of control | dose: 200.0 mg/kg/injection, schedule: Q01DX009 (ip), vehicle: Klucel (hydroxypropylcellulose) (HPC) 93 % of control | [12] 100 % of control | dose: 400.0 mg/kg/injection, schedule: Q01DX009 (ip), vehicle: Klucel (hydroxypropylcellulose) (HPC) 100 % of control | [13] 105 % of control

CCCC/C(=N\N=C(N)N)c1ccc(F)cc1
inactive: dose: 15.0 mg/kg/injection, schedule: Q01DX Z (ip), vehicle: methylcellulose (MC) 104 % of control | dose: 15.0 mg/kg/injection, schedule: Q01DX Z (oral), vehicle: methylcellulose (MC) 94 % of control | dose: 30.0 mg/kg/injection, schedule: Q01DX Z (ip), vehicle: methylcellulose (MC) 93 % of control | dose: 30.0 mg/kg/injection, schedule: Q01DX Z (oral), vehicle: methylcellulose (MC) 94 % of control

O=C(COc1ccc(Cl)c(Cl)c1)NCc1cccc(NC(=O)c2cccc(S(=O)(=O)F)c2)c1
inactive: dose: 100.0 mg/kg/injection, schedule: Q01DX001 (ip), vehicle: Klucel (hydroxypropylcellulose) (HPC) 107 % of control | dose: 200.0 mg/kg/injection, schedule: Q01DX001 (ip), vehicle: Klucel (hydroxypropylcellulose) (HPC) 98 % of control | dose: 400.0 mg/kg/injection, schedule: Q01DX001 (ip), vehicle: Klucel (hydroxypropylcellulose) (HPC) 91 % of control

CC(=O)OCC1OC(S[As](C)SC2OC(COC(C)=O)C(OC(C)=O)C(OC(C)=O)C2OC(C)=O)C(OC(C)=O)C(OC(C)=O)C1OC(C)=O (stereo unspecified)
inactive: [14] 101 % of control | [15] 116 % of control | [16] 116 % of control

CCc1ccccc1NC(=O)Sc1ccccc1O
inactive: [14] 105 % of control | [15] 105 % of control | [16] 93 % of control and 102 % of control

CCCCCCCCCCCCCCCc1ccc(C(=O)C[n+]2ccccc2)cc1
inactive: dose: 16.5 mg/kg/injection, schedule: Q01DX009 (ip), vehicle: saline with Tween-80 114 % of control | [16] 120 % of control

CCOC(=O)c1c(N)sc2c1CCC2
inactive: dose: 100.0 mg/kg/injection, schedule: Q01DX001 (ip), vehicle: saline with Tween-80 110 % of control | dose: 100.0 mg/kg/injection, schedule: Q01DX009 (ip), vehicle: saline 102 % of control | [17] 93 % of control | dose: 200.0 mg/kg/injection, schedule: Q01DX001 (ip), vehicle: saline with Tween-80 103 % of control | dose: 200.0 mg/kg/injection, schedule: Q01DX009 (ip), vehicle: saline 107 % of control | [18] 96 % of control | dose: 400.0 mg/kg/injection, schedule: Q01DX001 (ip), vehicle: saline with Tween-80 98 % of control | [19] 89 % of control

CCCCCCCCCCN(CCCCCCCCCC)S(=O)(=O)c1ccc(OC)c([N+](=O)[O-])c1
inactive: dose: 75.0 mg/kg/injection, schedule: Q01DX001 (ip), vehicle: other 100 % of control | dose: 150.0 mg/kg/injection, schedule: Q01DX001 (ip), vehicle: other 93 % of control | dose: 300.0 mg/kg/injection, schedule: Q01DX001 (ip), vehicle: other 90 % of control

N#Cc1cc[n+](Cc2ccccc2)cc1
inactive: dose: 75.0 mg/kg/injection, schedule: Q01DX001 (ip), vehicle: saline 101 % of control | dose: 150.0 mg/kg/injection, schedule: Q01DX001 (ip), vehicle: saline 102 % of control

Cc1c(C2=NCC(C)S2)ccc(O)c1N (stereo unspecified)
inactive: dose: 62.5 mg/kg/injection, schedule: Q04DX002 (ip), vehicle: saline with Tween-80 93 % of control | dose: 125.0 mg/kg/injection, schedule: Q04DX002 (ip), vehicle: saline with Tween-80 90 % of control | dose: 250.0 mg/kg/injection, schedule: Q04DX002 (ip), vehicle: saline with Tween-80 93 % of control

O=C(Nc1ccccc1O)c1ccccc1
inactive: [11] 109 % of control | [12] 102 % of control | [13] 101 % of control

c1ccc([Si](c2ccccc2)(c2ccccc2)c2ccccc2)cc1
inactive: [6] 90 % of control | [2] 90 % of control | [8] 88 % of control

CCCCCCCCSSCCCCCCCC
inactive: [9] 97 % of control | dose: 100.0 mg/kg/injection, schedule: Q04DX003 (ip), vehicle: saline 95 % of control | [7] 95 % of control | dose: 200.0 mg/kg/injection, schedule: Q04DX003 (ip), vehicle: saline 98 % of control | [10] 91 % of control | dose: 400.0 mg/kg/injection, schedule: Q04DX003 (ip), vehicle: saline 95 % of control

CC1(c2ccccc2)CC1(Br)Br (stereo unspecified)
inactive: [17] 95 % of control | [18] 95 % of control | [19] 100 % of control

COS(C)(=O)=O
inactive: dose: 12.5 mg/kg/injection, schedule: Q01DX010 (ip), vehicle: saline 101 % of control and 91 % of control | dose: 25.0 mg/kg/injection, schedule: Q01DX010 (ip), vehicle: saline 102 % of control and 106 % of control | dose: 25.0 mg/kg/injection, schedule: Q01DX Z (ip), vehicle: carboxymethylcellulose (CMC) 97 % of control | dose: 50.0 mg/kg/injection, schedule: Q01DX010 (ip), vehicle: saline 96 % of control and 106 % of control | dose: 50.0 mg/kg/injection, schedule: Q01DX Z (ip), vehicle: carboxymethylcellulose (CMC) 106 % of control | dose: 100.0 mg/kg/injection, schedule: Q01DX010 (ip), vehicle: saline 95 % of control and 102 % of control | dose: 100.0 mg/kg/injection, schedule: Q01DX Z (ip), vehicle: carboxymethylcellulose (CMC) 95 % of control
